According to US20240293343A1, “Benzylideneaminoguanidine derivatives as NR2B-selective NMDA receptor antagonists and their therapeutic applications” (InFlectis BioScience, priority 2023, published 2024):
Read-outs that look alike come from different tables or passages of the source.

Legend:
ion channel of the NMDAR = experiment: NMDAR radiolabeled ligand displacement assay, MK-801; assay type: binding, rat; settings: pore channel
NMDAR (NR1A/NR2B) = target: T1, NMDAR (NR1A/NR2B) (Homo sapiens, UniProt Q05586+Q13224); experiment: NMDAR (NR1A/NR2B) Human Glutamate Ion Channel Cell Based Antagonist Ca2+ Flux Assay; settings: Hek293 cells expressing NMDAR subunit 1A/2B, FLIPR Tetra; read-out: IC50, antagonist activity on Ca^2+ flux
T1 construct: host or cells: HEK293
Protocol: Briefly, Hek293 cells stably transfected to express NMDAR subunit 1A/2B were seeded into 384-well microplates and incubated at 37° C. Cells were loaded with dye prior to testing. […] Cells were further incubated for 30-60 minutes at 37° C., and compound activity on calcium flux was measured on a FLIPR Tetra (MDS).

[1] = solid and solution states; cited from earlier work
[2] = target: T2, Ifenprodil binding site on the NR2B subunit (Rattus norvegicus, UniProt P35439+Q00960); experiment: NMDAR radiolabeled ligand displacement assay, Ifenprodil
T2 construct: tissue Eurofins 232910/233010/234000/SafetyScreen44 Panel; host or cells: rat cerebral cortex

[3] = system: NMDA-induced currents / cytosolic Ca^2+ load; settings: Ruiz et al. 2020; cited from earlier work
[4] = target: T3, glycine binding to the NMDAR NR1 subunit (Rattus norvegicus, UniProt P35439); experiment: NMDAR radiolabeled ligand displacement assay, MDL-105,519; settings: glycine site
T3 construct: tissue Eurofins 232910/233010/234000/SafetyScreen44 Panel

[5] = system: glutamate binding to the NMDAR NR2 subunit; experiment: NMDAR radiolabeled ligand displacement assay, CGP-39653; set-up: species or system rat; settings: glutamate site
[6] = human, cited from earlier work
sciatic nerve injury = experiment: Mouse model of sciatic nerve injury (toe spreading, electromyography, histology); assay type: in vivo, mice (Swiss CD-1); settings: 1.5 mg/kg once daily per os
Protocol: 6-week-old Swiss (CD-1) male mice were provided by Janvier Labs and housed in an animal facility in a day/night inversed cycle. […] Mice were anesthetized with ketamine chlorohydrate (100 mg/kg) and xylazine (10 mg/kg) and placed on a heating pad. Skin was incised and the sciatic nerve exposed at mid-thigh level and lesioned with fine forceps to ensure peripheral injury. The nerve was crushed twice with a haemostatic forceps (width 1.5 mm; Koenig, Strasbourg, France) with a 90-degree rotation between each crush. The skin incision was sutured, and mice were allowed to recover isolated until the end of anesthesia. The hind limb, contralateral to the lesion, served as uninjured control. Analgesia was induced prior surgery and the following days with bunepronorphine (0.1 mg/kg). […] The loss of nerve function recovered progressively over a 4-5 weeks period after mechanical insult.
At day 0, on day 7, and on day 14 and day 21 post-surgery, the functionality of the nerve fibers was determined with an electromyography apparatus (Dantec, Natus, France), on the ipsilateral side and contralateral side. […] The compound muscle action potential (CMAP) was measured: more precisely the amplitude (mV) and the latency (ms) of the action potential were recorded in gastrocnemius muscle after stimulation of the sciatic nerve. […]

[7] = in vivo

T1 sequence (Q13224 27-1484, other chains not shown): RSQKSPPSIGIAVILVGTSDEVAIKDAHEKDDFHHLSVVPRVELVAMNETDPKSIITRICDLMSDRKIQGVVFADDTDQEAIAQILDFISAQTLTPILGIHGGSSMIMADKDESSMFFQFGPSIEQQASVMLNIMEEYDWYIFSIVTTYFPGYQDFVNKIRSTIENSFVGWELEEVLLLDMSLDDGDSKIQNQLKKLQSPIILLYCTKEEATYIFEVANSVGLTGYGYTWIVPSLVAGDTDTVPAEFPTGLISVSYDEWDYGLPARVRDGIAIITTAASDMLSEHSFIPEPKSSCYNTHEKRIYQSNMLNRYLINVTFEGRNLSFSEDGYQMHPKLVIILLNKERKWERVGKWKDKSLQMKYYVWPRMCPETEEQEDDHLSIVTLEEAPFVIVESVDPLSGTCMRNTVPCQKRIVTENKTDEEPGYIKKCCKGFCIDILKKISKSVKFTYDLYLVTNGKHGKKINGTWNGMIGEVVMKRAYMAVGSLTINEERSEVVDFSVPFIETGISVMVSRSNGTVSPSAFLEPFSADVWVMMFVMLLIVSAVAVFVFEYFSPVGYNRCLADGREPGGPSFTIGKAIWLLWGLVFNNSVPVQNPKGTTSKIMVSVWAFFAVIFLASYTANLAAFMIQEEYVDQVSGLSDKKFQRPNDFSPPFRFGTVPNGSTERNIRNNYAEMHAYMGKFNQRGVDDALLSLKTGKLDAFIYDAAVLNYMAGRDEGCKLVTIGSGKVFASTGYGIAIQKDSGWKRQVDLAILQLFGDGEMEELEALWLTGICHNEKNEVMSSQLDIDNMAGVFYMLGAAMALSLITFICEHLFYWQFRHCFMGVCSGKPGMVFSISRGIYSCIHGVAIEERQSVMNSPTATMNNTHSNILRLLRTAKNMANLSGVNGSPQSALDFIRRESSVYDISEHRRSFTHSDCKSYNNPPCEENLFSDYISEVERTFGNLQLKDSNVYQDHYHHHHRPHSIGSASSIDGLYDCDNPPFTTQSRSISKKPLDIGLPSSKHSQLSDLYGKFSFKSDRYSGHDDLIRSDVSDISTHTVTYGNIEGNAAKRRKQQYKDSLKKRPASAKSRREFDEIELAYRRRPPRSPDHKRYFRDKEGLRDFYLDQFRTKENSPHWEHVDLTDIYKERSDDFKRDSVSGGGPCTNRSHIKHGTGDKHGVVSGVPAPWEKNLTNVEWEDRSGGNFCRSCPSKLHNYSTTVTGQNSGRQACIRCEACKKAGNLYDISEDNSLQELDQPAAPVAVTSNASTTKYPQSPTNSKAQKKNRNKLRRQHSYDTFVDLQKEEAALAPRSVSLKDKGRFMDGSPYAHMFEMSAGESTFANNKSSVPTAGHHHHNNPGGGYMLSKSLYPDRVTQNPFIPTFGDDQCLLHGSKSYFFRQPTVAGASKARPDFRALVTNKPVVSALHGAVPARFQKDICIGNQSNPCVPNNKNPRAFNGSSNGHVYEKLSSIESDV
T2 sequence (Q00960 27-1482, other chains not shown): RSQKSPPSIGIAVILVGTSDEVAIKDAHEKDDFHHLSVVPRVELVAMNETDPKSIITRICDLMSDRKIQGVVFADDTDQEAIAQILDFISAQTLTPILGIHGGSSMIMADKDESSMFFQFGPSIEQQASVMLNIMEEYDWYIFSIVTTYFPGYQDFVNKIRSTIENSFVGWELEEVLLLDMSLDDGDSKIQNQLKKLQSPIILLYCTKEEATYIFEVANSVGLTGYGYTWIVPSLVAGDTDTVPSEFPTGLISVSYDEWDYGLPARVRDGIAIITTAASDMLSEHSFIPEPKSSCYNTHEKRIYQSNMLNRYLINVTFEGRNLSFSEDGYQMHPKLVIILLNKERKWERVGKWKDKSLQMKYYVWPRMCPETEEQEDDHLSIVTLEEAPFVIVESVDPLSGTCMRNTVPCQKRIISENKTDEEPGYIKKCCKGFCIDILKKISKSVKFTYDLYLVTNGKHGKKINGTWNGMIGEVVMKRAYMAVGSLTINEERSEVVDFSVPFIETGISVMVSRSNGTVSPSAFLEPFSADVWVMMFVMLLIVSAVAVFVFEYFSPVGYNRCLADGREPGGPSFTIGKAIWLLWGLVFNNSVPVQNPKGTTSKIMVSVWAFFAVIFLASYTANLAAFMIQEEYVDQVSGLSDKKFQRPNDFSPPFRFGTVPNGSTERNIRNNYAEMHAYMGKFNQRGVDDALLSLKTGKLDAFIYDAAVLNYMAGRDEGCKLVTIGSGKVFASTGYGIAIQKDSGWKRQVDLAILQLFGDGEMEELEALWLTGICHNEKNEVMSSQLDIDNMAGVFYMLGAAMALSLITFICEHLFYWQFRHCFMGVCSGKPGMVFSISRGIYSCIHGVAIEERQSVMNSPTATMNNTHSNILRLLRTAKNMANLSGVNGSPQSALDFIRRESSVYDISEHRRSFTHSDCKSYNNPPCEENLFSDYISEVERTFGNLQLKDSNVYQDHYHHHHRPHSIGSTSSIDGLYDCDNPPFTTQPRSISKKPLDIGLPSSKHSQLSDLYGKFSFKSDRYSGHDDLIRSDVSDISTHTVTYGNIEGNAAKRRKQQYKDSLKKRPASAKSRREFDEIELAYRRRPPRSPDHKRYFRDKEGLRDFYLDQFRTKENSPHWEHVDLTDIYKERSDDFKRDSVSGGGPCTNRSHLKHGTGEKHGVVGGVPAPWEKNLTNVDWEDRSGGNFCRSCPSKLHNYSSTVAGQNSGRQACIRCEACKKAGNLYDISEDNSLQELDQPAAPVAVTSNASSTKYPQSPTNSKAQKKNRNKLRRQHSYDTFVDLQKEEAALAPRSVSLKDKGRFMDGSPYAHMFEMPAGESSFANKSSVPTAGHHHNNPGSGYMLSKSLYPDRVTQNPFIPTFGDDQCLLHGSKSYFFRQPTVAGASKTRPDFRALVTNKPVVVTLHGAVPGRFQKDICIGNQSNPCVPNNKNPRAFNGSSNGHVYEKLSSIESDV

SMILES | displacement of radiolabeled ligand MK-801 (ion channel of the NMDAR) | IC50 (NMDAR (NR1A/NR2B)) | IC50 [2] | displacement of radiolabeled ligand MDL-105,519 [4] | displacement of radiolabeled ligand CGP-39653 [5] | also measured
CC(=O)O.N=C(N)N/N=C/c1c(Cl)cccc1Cl [Compound 1, 2-(2,6-dichlorobenzylidene)hydrazine-carboximidamide acetate salt] | unable to displace | 0.625 µM | 0.4 µM | unable to displace | unable to displace | spontaneous isomerization (E/Z) [1]: practically insignificant; NMDA-induced currents [3]: reducing; NMDA-induced cytosolic Ca^2+ load [3]: reducing; adverse events resembling those present in schizophrenia ([6]; controlled and open therapeutic trials): none of the adverse events seen with compound 1 (i.e. guanabenz) resembled those present in schizophrenia; cardiovascular side effects [6]: rare, apart from a decrease in heart rate; reported side effects [6]: drowsiness, dry mouth, dizziness and weakness
N=C(N)N/N=C/c1ccc(F)cc1Cl [Compound 3, 2-(2-chloro-4-fluoro-benzylidene)hydrazine-carboximidamide] | unable to displace | 0.702 µM | 0.25 µM | unable to displace | unable to displace | recovery of toe spreading compared to control group (sciatic nerve injury): faster; recovery of toe spreading, median time (printed median survival) (sciatic nerve injury; ipsilateral paw, vehicle usually after 10 days): 8 days
N=C(N)N/N=C/c1ccc(O)cc1Cl [Compound 19, 2-(2-chloro-4-hydroxybenzylidene)hydrazine-carboximidamide] |  |  |  |  |  | adverse events resembling those present in schizophrenia ([7]; human): None of the adverse events seen with compound 2 and 19 resembled those present in schizophrenia; compound-related hypotension and dizziness ([7]; human): No clinically significant compound 2 and 19-related hypotension, and dizziness; metabolite status in human [7]: major human metabolite of compound 2
C[C@]12N[C@H](Cc3ccccc31)c1ccccc12 [MK-801] |  | 0.069 µM |  |  |  | 
